Assay results from PubChem BioAssay (NCI).
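Dose response: 5 concentrations. Exposure: 48 h. Format: 96-well plates. Endpoint: linear interpolation; highest concentration if not reached. Definition used: TGI = concentration required for complete inhibition of growth.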

Experiments:
Experiment in all cases: NCI-60 cell line screen, 48 h
MOLT-4 leukemia = test system: MOLT-4 leukemia
OVCAR-3 ovarian = test system: OVCAR-3 ovarian
SK-MEL-5 melanoma = test system: SK-MEL-5 melanoma
SK-OV-3 ovarian = test system: SK-OV-3 ovarian
MALME-3M melanoma = test system: MALME-3M melanoma
SF-295 CNS = test system: SF-295 CNS
A498 renal = test system: A498 renal
DMS 273 small cell lung = test system: DMS 273 small cell lung
NCI-H226 lung = test system: NCI-H226 lung
SK-MEL-28 melanoma = test system: SK-MEL-28 melanoma
RXF 393 renal = test system: RXF 393 renal
RXF-631 renal = test system: RXF-631 renal
UACC-257 melanoma = test system: UACC-257 melanoma
ACHN renal = test system: ACHN renal
UO-31 renal = test system: UO-31 renal
HOP-18 NSCLC = test system: HOP-18 NSCLC
DLD-1 colon = test system: DLD-1 colon
M14 melanoma = test system: M14 melanoma
HL-60(TB) leukemia = test system: HL-60(TB) leukemia
EKVX NSCLC = test system: EKVX NSCLC
SR leukemia = test system: SR leukemia
786-0 renal = test system: 786-0 renal
KM20L2 colon = test system: KM20L2 colon
LXFL 529 NSCLC = test system: LXFL 529 NSCLC
OVCAR-8 ovarian = test system: OVCAR-8 ovarian
COLO 205 colon = test system: COLO 205 colon
SW-620 colon = test system: SW-620 colon
U251 CNS = test system: U251 CNS
K-562 leukemia = test system: K-562 leukemia
M19-MEL melanoma = test system: M19-MEL melanoma
OVCAR-5 ovarian = test system: OVCAR-5 ovarian
IGROV1 ovarian = test system: IGROV1 ovarian
SF-268 CNS = test system: SF-268 CNS
HCT-15 colon = test system: HCT-15 colon
OVCAR-4 ovarian = test system: OVCAR-4 ovarian
TK-10 renal = test system: TK-10 renal
HCT-116 colon = test system: HCT-116 colon
HOP-62 NSCLC = test system: HOP-62 NSCLC
UACC-62 melanoma = test system: UACC-62 melanoma
SN12C renal = test system: SN12C renal
HCC-2998 colon = test system: HCC-2998 colon
CAKI-1 renal = test system: CAKI-1 renal
SNB-19 CNS = test system: SNB-19 CNS
NCI-H522 lung = test system: NCI-H522 lung
KM12 colon = test system: KM12 colon
SNB-75 CNS = test system: SNB-75 CNS
CCRF-CEM leukemia = test system: CCRF-CEM leukemia
HT29 colon = test system: HT29 colon
SK-MEL-2 melanoma = test system: SK-MEL-2 melanoma
LOX IMVI melanoma = test system: LOX IMVI melanoma
NCI-H23 lung = test system: NCI-H23 lung
A549 NSCLC = test system: A549 NSCLC
NCI-H460 lung = test system: NCI-H460 lung
SF-539 CNS = test system: SF-539 CNS
SNB-78 CNS = test system: SNB-78 CNS
DMS 114 small cell lung = test system: DMS 114 small cell lung
RPMI-8226 leukemia = test system: RPMI-8226 leukemia

Measured: TGI

COc1ccc(OC)c2c(C(=O)O)c(C(C)c3ccccc3)ccc12 (stereo not drawn)
not listed: SF-539 CNS | SNB-78 CNS | DMS 114 small cell lung | RPMI-8226 leukemia
> 100 µM: all other assays above

CC(C)CC(N=Cc1nc(-c2ccccc2)oc1O)C(=O)O (stereo not drawn)
not listed: HOP-18 NSCLC | LXFL 529 NSCLC
> 100 µM: all other assays above
